Source: patent US10233426B2, “Method for inducing cardiac differentiation of pluripotent stem cell with low-molecular compounds” (KYOTO UNIVERSITY, priority 2014, dated 2019)

What was measured:
IMR90-1 = assay: Count of differentiated cardiomyocytes after culture under PFCD condition; assay type: cell-based, human; conditions: IMR90-1, PFCD suspension culture, day 14; FIG. 3d
Description: The differentiated cardiomyocytes was counted in the cell population from suspension or adhesion culture under PFCD condition of the pluripotent stem cell lines. The counts of differentiated cells per 2×10^6 undifferentiated cells are shown in the graph of FIG. 2d. The differentiation was more induced by suspension culture than adhesion culture in most of the stem cell lines. The cell count, as well as the flow cytometry, was taken on day 14.
To determine the contribution of each of the six compounds (CHIR99021, PMA, KY03-I, XAV939, AG1478, and A419259) to PFCD under suspension culture condition, IMR90-1 (from culture on MEF feeder) was cultured in media to which different combinations of five of the compounds were added. Cells from the culture were analyzed by flow cytometry using a cTnT antibody for staining. A part of the cells from culture were not treated with the primary antibody to serve as a negative control. Thirty thousand cells from each sample were loaded to a flow cytometer FACSCantoII.
The differentiated cardiomyocytes was counted in a cultured cell population corresponding to that of FIG. 3c. […] The cell count, as well as the flow cytometry, was taken on day 14.

[1] = test system: monkey ES cell line transfected with an α-MHC promoter-driven GFP gene; conditions: culture with PMA (all six compounds); without PMA (other five compounds) only weak fluorescence; FIG. 3a
Description: A monkey ES cell line transfected with an α-MHC promoter-driven GFP gene was suspension cultured under PFCD condition in culture media with PMA (with all the six compounds added) or without PMA (with the five compounds other than PMA added) (FIG. 2a). The cells from the culture with PMA are shown in the left-hand micrographs, and the cells from the culture without PMA are shown in the right-hand micrographs.

[2] = test system: mesoderm-related genes (MSGN1, T, MIXL1 and NODAL); assay: Quantitative PCR for expression of mesoderm-related genes under PFCD condition; assay type: cell-based, human; conditions: IMR90-1; 2 μM CHIR99021 or 0.3 μM PMA alone, day 0 to day 2; mRNA on day 2; FIG. 3e
Experimental: A human iPS cell line (IMR90-1 cultured on MEF feeder) was cultured in PFCD culture media, to which 2 μM CHIR99021 or 0.3 μM PMA or the both (CHIR99021+PMA) were added for early phase of cardiac differentiation (day 0 to day 2). On day 2, mRNA was extracted the cultured cells and analyzed by quantitative PCR for the expression of mesoderm-related genes (MSGN1, T, MIXL1 and NODAL) (FIG. 3e). As a control, cells were cultured similarly, but with DMSO in place of the test compounds. The gene expression level in the control cells was assigned to one. […] In contrast, the expression of the genes was reduced when PMA was added to the culture. However, the reduction in gene expression by PMA was counteracted and reversed when CHIR99021 was added in combination with PMA (in accordance with the optimal PFCD condition).
A human iPS cell line (IMR90-1 from culture on MEF feeder) was cultured in PFCD media with one of 1 μM XAV939, 0.3 μM A419259, 10 μM AG1478 or 3 μM KY03-I, or all of them (XAV939+A419259+AG1478+KY03-I) in late phase of cardiac differentiation (day 3 to day 4). On day 4, mRNA was extracted from the cultured cells and analyzed by quantitative PCR for the expression of mesoderm-related genes (MSGN1, T, MIXL1 and NODAL) (FIG. 3f).

[3] = test system: monkey ES cell line transfected with an αMHC promoter-driven GFP gene; assay: Chemical screening: GFP fluorometry for cardiac differentiation of monkey ES cells; assay type: cell-based, cynomolgus monkey; conditions: 0.03 to 0.3 μM in early phase, alone or in combination with KY02111 (10 μM in late phase); FIG. 1c
[4] = test system: cells from suspension or adhesion culture of IMR90-1 under PFCD condition; assay: Whole-cell patch clamp electrophysiology of PFCD cardiomyocytes; assay type: cell-based, human; conditions: IMR90-1 PFCD cardiomyocytes, day 30; FIG. 4k
Description: Comparison was made between cells from suspension culture and cells from adhesion culture in terms of electrophysiology of cells by using a whole-cell patch clamp technique. For this purpose, IMR90-1 (from culture on MEF feeder) was suspension or adhesion cultured under PFDC condition. Cells were harvested on day 30 for the analysis. In action potential waveforms in the cells from suspension culture and the cells from adhesion culture, there was no significant difference between the cell populations in terms of RP (resting potential; around −60 mV) (FIGS. 4d and 4e) and APD90 (action potential duration; about 0.7 sec) (FIGS. 4d and 4g). […] ICa (Voltage-gated Ca channel current) was also higher in the cells from suspension culture than the cells from adhesion culture, but the difference was not significant (FIG. 4i). […] IKs (KCQN1 channel current) was higher in the cells from suspension culture than the cells from adhesion culture (FIG. 4j).

SMILES: CCCCCCCCCCCCCC(=O)O[C@@H]1[C@@H](C)[C@@]2(O)[C@@H](C=C(CO)C[C@]3(O)C(=O)C(C)=C[C@@H]23)[C@@H]2C(C)(C)[C@]12OC(C)=O [PMA, Phorbol 12-myristate 13-acetate]
- cardiomyocyte count on omission of the compound from the six-compound culture (IMR90-1): significant reduction
- GFP fluorescence of colonies [1]: mostly GFP-positive
- expression of the mesoderm-related genes (MSGN1, T, MIXL1 and NODAL) vs DMSO control [2]: reduced
- increase of cardiac differentiation [3]: three- to eight-fold

SMILES: Cc1c[nH]c(-c2cnc(NCCNc3ccc(C#N)cn3)nc2-c2ccc(Cl)cc2Cl)n1 [CHIR99021]
- cardiomyocyte count on omission of the compound from the six-compound culture (IMR90-1): significant reduction
- expression of the mesoderm-related genes (MSGN1, T, MIXL1 and NODAL) vs DMSO control [2]: significantly increased

SMILES: Cc1cccc(CCN2CCC(C(=O)c3ccc(NS(C)(=O)=O)cc3)CC2)n1 [E4031]
- increase in APD90, cells from suspension culture compared with cells from adhesion culture [4]: not significantly different

SMILES: CCS(=O)(=O)N(C)[C@H]1c2cc(C#N)ccc2OC(C)(C)[C@@H]1O [Chromanol293B]
- increase in APD90, cells from suspension culture compared with cells from adhesion culture [4]: significantly higher
